Experiments:
[1] = tested on: IPOHE; assay: Example V (second) postemergence foliar-applied ternary mixtures, greenhouse, direct seeded rice weeds; assay type: in vivo, Ipomoea hederacea Jacq.; conditions: 28 gai/ha
Method: (§1) The treated plants and control plants were placed in a greenhouse as described above and watered by sub-irrigation to prevent wash-off of the test compounds. After approximately 3 weeks, the condition of the test plants as compared with that of the untreated plants was determined visually and scored on a scale of 0 to 100 percent where 0 corresponds to no injury or growth inhibition and 100 corresponds to complete kill.
(§2) Colby's equation was used to determine the herbicidal effects expected from the mixtures (Colby, S. R. 1967. Calculation of the synergistic and antagonistic response of herbicide combinations. Weeds 15:20-22.).
(§3) The following equation was used to calculate the expected activity of mixtures containing three active ingredients, A, B, and C: Expected=A+B+C−((A×B+A×C+B×C)/100)+(A×B×C/10000)

[2] = tested on: CYPES; assay: as above; assay type: in vivo, Cyperus esculentus L.; conditions: 28 gai/ha
Method: as §1, §2, §3

[3] = tested on: ECHCG; assay: as above; assay type: in vivo, Echinochloa crus-galli (L.) Beauv.; conditions: 105 gae/ha
Description: Seeds or nutlets of the desired test plant species were planted in a soil matrix prepared by mixing a sandy loam or loam soil (e.g., 32 percent silt, 23 percent clay, and 45 percent sand, with a pH of about 6.5 and an organic matter content of about 1.9 percent) and calcareous grit in an 80 to 20 ratio. The soil matrix was contained in plastic pots with a volume of 1 quart and a surface area of 83.6 square centimeters (cm^2). When required to ensure good germination and healthy plants, a fungicide treatment and/or other chemical or physical treatment was applied. The plants were grown for 8-22 days in a greenhouse with an approximate 14 hr. photoperiod which was maintained at about 29° C. during the day and 26° C. during the night. Nutrients (Peters Excel® 15-5-15 5-Ca 2-Mg and iron chelate) were applied in the irrigation solution as needed and water was added on a regular basis. Supplemental lighting was provided with overhead metal halide 1000-Watt lamps as necessary. The plants were employed for testing when they reached the first through fourth true leaf stage.
Treatments consisted of the benzyl ester of 4-amino-3-chloro-5-fluoro-6-(4-chloro-2-fluoro-3-methoxy-phenyl)pyridine-2-carboxylic acid (Compound A), formulated as an SC (suspension concentrate), an ACCase inhibitor, and a third herbicidal component, each applied alone and in ternary combination. Forms of compound A were applied on an acid equivalent basis.
The ACCase inhibitor component was applied on an active ingredient basis and included cyhalofop-R-butyl formulated as Clincher® SF, fenoxaprop-p-ethyl formulated as RiceStar® HT, and profoxydim formulated as Aura® 20EC. Other herbicidal components were applied on an active ingredient or acid equivalent basis depending on the compound and included penoxsulam formulated as Grasp® SC, bentazon sodium formulated as Basagran®, triclopyr […] (TEA) salt formulated as Grandstand® R, bispyribac sodium formulated as Regiment® 80WP, imazamox ammonium formulated as Beyond®, benzobicyclon, quinclorac formulated as Facet® 75DF, glyphosate dimethylammonium (DMA) salt formulated as Durango® DMA, glufosinate ammonium formulated as Ignite® 280, fentrazamide formulated as an emulsifiable concentrate (EC), propyrisulfuron formulated as Zeta One®, and indanofan (technical grade material).
(§4) Treatment requirements were calculated based upon the rates being tested, the concentration of active ingredient or acid equivalent in the formulation, and a 12 mL application volume at a rate of 187 L/ha.
(§5) For treatments comprised of formulated compounds, measured amounts of compounds were placed individually in 25 mL glass vials and diluted in a volume of 1.25% (v/v) Agri-Dex® crop oil concentrate to obtain 12× stock solutions. […] Application solutions were prepared by adding an appropriate amount of each stock solution (e.g., 1 mL) and diluted to the appropriate final concentrations with the addition of 9 mL of an aqueous mixture of 1.25% (v/v) crop oil concentrate so that the final spray solutions contained 1.25% (v/v) crop oil concentrate.
As required, additional water and/or 97:3 v/v acetone/DMSO was added to individual application solutions so that the final acetone and DMSO concentrations of the application solutions being compared were 8.1% and 0.25%, respectively.
All stock solutions and applications solutions were visually inspected for compound compatibility prior to application. Spray solutions were applied to the plant material with an overhead Mandel track sprayer equipped with a 8002E nozzles calibrated to deliver 187 L/ha over an application area of 0.503 m^2 at a spray height of 18 inches (46 cm) above average plant canopy height. Control plants were sprayed in the same manner with the solvent blank.
The treated plants and control plants were placed in a greenhouse as described above and watered by sub-irrigation to prevent wash-off of the test compounds. […]

[4] = tested on: LEFCH; assay: as above; assay type: in vivo, Leptochloa chinensis (L.) Nees; conditions: 420 gai/ha
Method: as §1, §2, §3

[5] = tested on: IPOHE; assay: Example I postemergence foliar-applied, greenhouse, direct seeded rice weeds; assay type: in vivo, Ipomoea hederacea Jacq.
Description: (§6) Seeds or nutlets of the desired test plant species were planted in a soil matrix prepared by mixing a loam or sandy loam soil (e.g., 28.6 percent silt, 18.8 percent clay, and 52.6 percent sand, with a pH of about 5.8 and an organic matter content of about 1.8 percent) and calcareous grit in an 80 to 20 ratio. The soil matrix was contained in plastic pots with a volume of 1 quart and a surface area of 83.6 square centimeters (cm^2). When required to ensure good germination and healthy plants, a fungicide treatment and/or other chemical or physical treatment was applied. The plants were grown for 8-22 days in a greenhouse with an approximate 14 hr. photoperiod which was maintained at about 29° C. during the day and 26° C. during the night. Nutrients (Peters Excel® 15-5-15 5-Ca 2-Mg and iron chelate) were applied in the irrigation solution as needed and water was added on a regular basis. Supplemental lighting was provided with overhead metal halide 1000-Watt lamps as necessary. The plants were employed for testing when they reached the first through fourth true leaf stage.
(§7) Treatments consisted of the acid or esters of 4-amino-3-chloro-5-fluoro-6-(4-chloro-2-fluoro-3-methoxy-phenyl)pyridine-2-carboxylic acid (Compound A), each formulated as an SC (suspension concentrate), and various herbicidal components alone and in combination.
(§8) Other herbicidal components were applied on an acid equivalent (ae) or active ingredient (ai) basis and included acetyl coA carboxylase (ACCase)-inhibiting herbicides (cyclohexanedione and aryloxyphenoxypropionate chemical classes) cyhalofop-butyl formulated as Clincher® SF (285 gr ai/L EC), diclofop-methyl formulated as Hoelon® 3EC, fenoxaprop-p-ethyl+isoxadifen-ethyl formulated as RiceStar® HT (0.58 lb./gal EC), fenoxaprop-p-ethyl+mefenpyr diethyl formulated as Puma® IEC, metamifop formulated as Metamifop EC, haloxyfop-methyl formulated as Gallant Super®, fluazifop-p-butyl formulated as Fusilade® DX, quizalofop-p-ethyl formulated as Assure® II, profoxydim formulated as Aura® 20EC, clethodim applied as Intensity®, sethoxydim formulated as Poast®, and tralkoxydim formulated as Achieve®.
as §4
as §5, with “crop oil concentrated to obtain” for “crop oil concentrate to obtain”, “addition of 10 mL of” for “addition of 9 mL of”, “solutions contained 1.25+/−0.05% (v/v) crop” for “solutions contained 1.25% (v/v) crop”
(§9) All stock solutions and applications solutions were visually inspected for compound compatibility prior to application. Spray solutions were applied to the plant material with an overhead Mandel track sprayer equipped with a 8002E nozzles calibrated to deliver 187 L/ha over an application area of 0.503 m^2 at a spray height of 18 to 20 inches (46 to 50 cm) above average plant canopy height. Control plants were sprayed in the same manner with the solvent blank.
as §1, with “kill. […]” for “kill.”

[6] = tested on: SCPJU; assay: as above; assay type: in vivo, Schoenoplectus juncoides (Roxb.) Palla
Description: as §6, §7, §8, §4
as §5, with “crop oil concentrated to obtain” for “crop oil concentrate to obtain”, “addition of 10 mL of” for “addition of 9 mL of”, “solutions contained 1.25+/−0.05% (v/v) crop” for “solutions contained 1.25% (v/v) crop”
as §9
as §1, with “kill. […]” for “kill.”

[7] = tested on: PHAMI; assay: Example IV postemergence foliar-applied, greenhouse, cereal crops weeds; assay type: in vivo, Phalaris minor Retz.
Method: (§10) Seeds of the desired test plant species were planted in Sun Gro MetroMix® 306 planting mixture, which typically has a pH of 6.0 to 6.8 and an organic matter content of about 30 percent, in plastic pots with a surface area of 103.2 square centimeters (cm^2). […] The plants were grown for 7-36 days in a greenhouse with an approximate 14 hour photoperiod which was maintained at about 18° C. during the day and about 17° C. during the night. Nutrients and water were added on a regular basis and supplemental lighting was provided with overhead metal halide 1000-Watt lamps as necessary. The plants were employed for testing when they reached the second or third true leaf stage.
(§11) Treatments consisted of the benzyl ester of 4-amino-3-chloro-5-fluoro-6-(4-chloro-2-fluoro-3-methoxy-phenyl)pyridine-2-carboxylic acid (Compound A), formulated as an SC, a second cereal herbicide alone and then both in combination.
(§12) Other herbicidal components were applied on an active ingredient basis and included acetyl-CoA carboxylase (ACCase)-inhibiting herbicides clodinafop-propargyl, fenoxaprop-P-ethyl, pinoxaden and tralkoxydim.
(§13) Measured aliquots of benzyl ester of 4-amino-3-chloro-5-fluoro-6-(4-chloro-2-fluoro-3-methoxy-phenyl)pyridine-2-carboxylic acid (Compound A) were placed in 25 milliliter (mL) glass vials and diluted in a volume of 1.25% (v/v) Agri-Dex® crop oil concentrate to obtain stock solutions. Compound requirements are based upon a 12 mL application volume at a rate of 187 liters per hectare (L/ha). […] Formulated compounds were applied to the plant material with an overhead Mandel track sprayer equipped with an 8002E nozzle calibrated to deliver 187 L/ha over an application area of 0.503 square meters (m^2) at a spray height of 18 inches (46 cm) above average plant canopy. Control plants were sprayed in the same manner with the solvent blank.
as §1, with “20-22 days,” for “approximately 3 weeks,”, “control” for “untreated”, “injury” for “injury or growth inhibition”
as §2
(§14) The following equation was used to calculate the expected activity of mixtures containing two active ingredients, A and B: Expected=A+B−(A×B/100)

[8] = tested on: KCHSC; assay: as above; assay type: in vivo, Kochia scoparia (L.) Schrad.
Method: as §10, §11, §12, §13
as §1, with “20-22 days,” for “approximately 3 weeks,”, “control” for “untreated”, “injury” for “injury or growth inhibition”
as §2, §14

[9] = tested on: ECHCO; assay: Example I postemergence foliar-applied, greenhouse, direct seeded rice weeds; assay type: in vivo, Echinochloa colona (L.) Link
Description: as §6, §7, §8, §4
as §5, with “crop oil concentrated to obtain” for “crop oil concentrate to obtain”, “addition of 10 mL of” for “addition of 9 mL of”, “solutions contained 1.25+/−0.05% (v/v) crop” for “solutions contained 1.25% (v/v) crop”
as §9
as §1, with “kill. […]” for “kill.”

[10] = tested on: ECHCO; assay: Example V (second) postemergence foliar-applied ternary mixtures, greenhouse, direct seeded rice weeds; assay type: in vivo, Echinochloa colona (L.) Link; conditions: 115 gai/ha
Method: as §1, §2, §3

COc1cc(OC)nc(Oc2cccc(Oc3nc(OC)cc(OC)n3)c2C(=O)O)n1 [Bispyribac sodium]
Visual Weed Control (%) - 21 DAA IPOHE Obs [1]: 60% | Visual Weed Control (%) - 21 DAA CYPES Obs [2]: 20%

CNC.O=C(O)CNCP(=O)(O)O [Glyphosate DMA]
Visual Weed Control (%) - 21 DAA ECHCG Obs [3]: 23% | Visual Weed Control (%) - 21 DAA LEFCH Obs [4]: 45%

CCc1cc(C)cc(CC)c1-c1c(OC(=O)C(C)(C)C)n2n(c1=O)CCOCC2 [Pinoxaden, 8-(2,6-diethyl-4-methylphenyl)-1,2,4,5-tetrahydro-7-oxo-7H-pyrazolo[1,2-d][1,4,5]oxadiazepin-9-yl 2,2-dimethylpropanoate]
Visual Weed Control (%) - 21 DAA IPOHE Obs ([5]; 15 gai/ha): 10% | Visual Weed Control (%) - 21 DAA IPOHE Obs ([5]; 30 gai/ha): 10% | Visual Weed Control (%) - 21 DAA IPOHE Obs ([5]; 60 gai/ha): 0% | Visual Weed Control (%) - 21 DAA SCPJU Obs ([6]; 15 gai/ha): 0% | Visual Weed Control (%) - 21 DAA SCPJU Obs ([6]; 30 gai/ha): 0% | Visual Weed Control (%) - 21 DAA SCPJU Obs ([6]; 60 gai/ha): 0% | Visual Weed Control (%) - 21 DAA PHAMI Obs ([7]; Pinoxaden 15 gai/ha): 78% | Visual Weed Control (%) - 21 DAA PHAMI Obs ([7]; Pinoxaden 30 gai/ha): 94% | Visual Weed Control (%) - 21 DAA KCHSC Obs ([8]; Pinoxaden 15 gai/ha): 0% | Visual Weed Control (%) - 21 DAA KCHSC Obs ([8]; Pinoxaden 30 gai/ha): 15% | Visual Weed Control (%) - 21 DAA ECHCO Obs ([9]; 15 gai/ha): 15% | Visual Weed Control (%) - 21 DAA ECHCO Obs ([9]; 30 gai/ha): 85% | Visual Weed Control (%) - 21 DAA ECHCO Obs ([9]; 60 gai/ha): 95%

CP(=O)(O)CCC(N)C(=O)O (stereo not drawn) [Glufosinate ammonium]
Visual Weed Control (%) - 21 DAA ECHCO Obs [10]: 0%

— patent publication US9232796B2, “Herbicidal compositions comprising 4-amino-3-chloro-5-fluoro-6-(4-chloro-2-fluoro-3-methoxyphenyl) pyridine-2-carboxylic acid or a derivative thereof and acetyl-CoA carboxylase (ACCase) inhibitors” (DOW AGROSCIENCES LLC, priority 2012, dated 2016)
